Reference: PMC8530938 (Chemico-biological interactions, 2021)
Read-outs that look alike come from different tables or passages of the source.

Legend:
[1] = system: yeast ADH1; conditions: oxidation; ref [77]; cited from earlier work
[2] = system: yeast ADH2; conditions: oxidation; ref [77]; cited from earlier work
[3] = target: T1, T45G yeast alcohol dehydrogenase (ADH1) (Saccharomyces cerevisiae, UniProt P00330, T46G); assay: biochemical; assay type: biochemical
[4] = target: T1, T45G yeast alcohol dehydrogenase (ADH1)
[5] = system: wild-type yeast alcohol dehydrogenase (ADH1); conditions: pH 7.3, 30 °C, ref [21], cited from earlier work
[6] = system: horse liver ADH1E with S48A substitution; conditions: ref [6]; cited from earlier work
[7] = target: T1, T45G yeast alcohol dehydrogenase (ADH1); assay: Spectrophotometric titration with NAD+ in the presence of 10 mM pyrazole; assay type: binding; conditions: titration in the presence of 10 mM pyrazole
[8] = target: horse liver ADH; conditions: cited from earlier work
[9] = target: wild-type yeast enzyme (ADH1); conditions: read-out: Kd of NAD+; pH 8; ref [11]; cited from earlier work

T1 sequence (P00330 2-348 T46G): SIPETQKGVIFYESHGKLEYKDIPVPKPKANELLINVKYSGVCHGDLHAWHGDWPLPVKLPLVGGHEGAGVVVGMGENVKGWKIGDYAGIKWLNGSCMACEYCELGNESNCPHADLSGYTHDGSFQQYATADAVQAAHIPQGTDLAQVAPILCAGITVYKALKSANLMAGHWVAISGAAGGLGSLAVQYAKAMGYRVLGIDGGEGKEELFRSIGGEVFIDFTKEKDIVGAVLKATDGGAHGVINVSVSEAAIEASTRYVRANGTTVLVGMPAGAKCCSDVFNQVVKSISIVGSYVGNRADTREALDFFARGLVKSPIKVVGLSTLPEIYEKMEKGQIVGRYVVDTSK

SMILES: OCc1ccccc1 [Benzyl alcohol]
- turnover number [1]: 0.012 s⁻¹
- turnover number [2]: 1.9 s⁻¹

SMILES: CCO [ethanol]
- V1/Et, turnover number for ethanol oxidation ([3]; pH 7.3, 30 °C): 0.64 s⁻¹
- V1/Et (ethanol oxidation) ([4]; pH 5.60, 30 °C): 0.11 s⁻¹
- V1/Et (ethanol oxidation) ([4]; pH 6.05, 30 °C): 0.19 s⁻¹
- V1/Et (ethanol oxidation) ([4]; pH 6.54, 30 °C): 0.32 s⁻¹
- V1/Et (ethanol oxidation) ([4]; pH 7.00, 30 °C): 0.42 s⁻¹
- V1/Et (ethanol oxidation) ([4]; pH 8.07, 30 °C): 0.72 s⁻¹
- V1/Et (ethanol oxidation) ([4]; pH 9.00, 30 °C): 0.56 s⁻¹
- V1/Et (ethanol oxidation) ([4]; pH 9.95, 30 °C): 0.44 s⁻¹
- Kb ([4]; read-out: Kb, CH3CH2OH, pH 9.95, 30 °C): 91000 µM
- V1/Et, turnover number for ethanol oxidation [5]: 360 s⁻¹
- turnover with ethanol [6]: 0.018 s⁻¹

SMILES: NC(=O)C1=CN([C@@H]2O[C@H](COP(=O)(O)OP(=O)(O)OC[C@H]3O[C@@H](n4cnc5c(N)ncnc54)[C@H](O)[C@@H]3O)[C@@H](O)[C@H]2O)C=CC1 [NADH]
- Kq, Michaelis constant for NADH ([3]; pH 7.3, 30 °C): 47 µM
- Ki ([3]; read-out: Kiq, dissociation (inhibition) constant for NADH, pH 7.3, 30 °C): 70 µM
- Kq, NADH ([4]; pH 5.52, 30 °C): 9.6 µM
- Kq, NADH ([4]; pH 6.06, 30 °C): 3.4 µM
- Kq, NADH ([4]; pH 6.52, 30 °C): 18 µM
- Kq, NADH ([4]; pH 7.00, 30 °C): 13 µM
- Kq, NADH ([4]; pH 7.65, 30 °C): 220 µM
- Kq, NADH ([4]; pH 8.08, 30 °C): 320 µM
- Kq, NADH ([4]; pH 8.96, 30 °C): 910 µM
- Ki ([4]; read-out: Kiq, NADH, pH 5.52, 30 °C): 3.8 µM
- Ki ([4]; read-out: Kiq, NADH, pH 6.06, 30 °C): 8.6 µM
- Ki ([4]; read-out: Kiq, NADH, pH 6.52, 30 °C): 11 µM
- Ki ([4]; read-out: Kiq, NADH, pH 7.00, 30 °C): 38 µM
- Ki ([4]; read-out: Kiq, NADH, pH 7.65, 30 °C): 156 µM
- Ki ([4]; read-out: Kiq, NADH, pH 8.08, 30 °C): 290 µM
- Ki ([4]; read-out: Kiq, NADH, pH 8.96, 30 °C): 450 µM
- Kq, Michaelis constant for NADH [5]: 94 µM
- Ki ([5]; read-out: Kiq, dissociation (inhibition) constant for NADH): 31 µM

SMILES: CC=O [acetaldehyde]
- V2/Et, turnover number for acetaldehyde reduction ([3]; pH 7.3, 30 °C): 7.8 s⁻¹
- Kp, CH3CHO ([4]; pH 5.52, 30 °C): 52 mM
- V2/Et (acetaldehyde reduction) ([4]; pH 5.52, 30 °C): 21 s⁻¹
- Kp, CH3CHO ([4]; pH 6.06, 30 °C): 46 mM
- V2/Et (acetaldehyde reduction) ([4]; pH 6.06, 30 °C): 16 s⁻¹
- Kp, CH3CHO ([4]; pH 6.52, 30 °C): 56 mM
- V2/Et (acetaldehyde reduction) ([4]; pH 6.52, 30 °C): 16 s⁻¹
- Kp, CH3CHO ([4]; pH 7.00, 30 °C): 41 mM
- V2/Et (acetaldehyde reduction) ([4]; pH 7.00, 30 °C): 9.5 s⁻¹
- Kp, CH3CHO ([4]; pH 7.65, 30 °C): 43 mM
- V2/Et (acetaldehyde reduction) ([4]; pH 7.65, 30 °C): 9.3 s⁻¹
- Kp, CH3CHO ([4]; pH 8.08, 30 °C): 35 mM
- V2/Et (acetaldehyde reduction) ([4]; pH 8.08, 30 °C): 7.3 s⁻¹
- Kp, CH3CHO ([4]; pH 8.96, 30 °C): 33 mM
- V2/Et (acetaldehyde reduction) ([4]; pH 8.96, 30 °C): 4.2 s⁻¹
- V2/Et, turnover number for acetaldehyde reduction [5]: 1800 s⁻¹

SMILES: OCC(F)(F)F [CF3CH2OH, 2,2,2-trifluoroethanol]
- Ki [3]: 27000 µM
- increase of dissociation constant (Ki), T45G relative to wild type ([3]; pH 7.3): 10 fold
- Ki ([5]; read-out: Ki, dissociation (inhibition) constant, competitive inhibitor of ethanol): 2500 µM

SMILES: NC(=O)c1ccc[n+]([C@@H]2O[C@H](COP(=O)([O-])OP(=O)(O)OC[C@H]3O[C@@H](n4cnc5c(N)ncnc54)[C@H](O)[C@@H]3O)[C@@H](O)[C@H]2O)c1 [NAD^+]
- Ka, Michaelis constant for NAD+ ([3]; pH 7.3, 30 °C, 83 mM potassium phosphate, 40 mM KCl, 0.25 mM EDTA): 1500 µM
- Ki ([3]; read-out: Kia, dissociation (inhibition) constant for NAD+, pH 7.3, 30 °C): 1600 µM
- apparent Kd for NAD+ [7]: about the same as for wild-type enzyme
- Ka, NAD+ ([4]; pH 5.60, 30 °C): 660 µM
- Ka, NAD+ ([4]; pH 6.05, 30 °C): 510 µM
- Ka, NAD+ ([4]; pH 6.54, 30 °C): 720 µM
- Ka, NAD+ ([4]; pH 7.00, 30 °C): 690 µM
- Ka, NAD+ ([4]; pH 8.07, 30 °C): 2100 µM
- Ka, NAD+ ([4]; pH 9.00, 30 °C): 2140 µM
- Ka, NAD+ ([4]; pH 9.95, 30 °C): 1580 µM
- Ki ([4]; read-out: Kia, NAD+, pH 5.60, 30 °C): 800 µM
- Ki ([4]; read-out: Kia, NAD+, pH 6.05, 30 °C): 650 µM
- Ki ([4]; read-out: Kia, NAD+, pH 6.54, 30 °C): 720 µM
- Ki ([4]; read-out: Kia, NAD+, pH 7.00, 30 °C): 880 µM
- Ki ([4]; read-out: Kia, NAD+, pH 8.07, 30 °C): 1130 µM
- Ki ([4]; read-out: Kia, NAD+, pH 9.00, 30 °C): 1470 µM
- Ki ([4]; read-out: Kia, NAD+, pH 9.95, 30 °C): 2370 µM
- Ka, Michaelis constant for NAD+ ([5]; 83 mM potassium phosphate, 40 mM KCl, 0.25 mM EDTA): 160 µM
- Ki ([5]; read-out: Kia, dissociation (inhibition) constant for NAD+): 950 µM
- Kd ([8]; read-out: Kd of NAD+, open conformation of the protonated enzyme, pH 8, ref [11]): 670 µM
- Kd ([8]; read-out: observed dissociation constant for NAD+, after deprotonation and the conformational change, ref [52]): 27 µM
- Kd [9]: 1000 µM
